Earlier results in patent US20170106110A1, “ALLERGEN REDUCING COMPOSITION, SPRAY AGENT INCLUDING THE SAME AND SURFACE TREATMENT AGENT INCLUDING THE SAME, ALLERGEN REDUCING METHOD, ALLERGEN REDUCING TEXTILE STRUCTURE AND ALLERGEN REDUCING ARCHITECTURAL INTERIOR MATERIAL” (SC ENVIRONMENTAL SCIENCE CO., LTD., priority 2014, published 2017).

Conditions: rat

zinc gluconate
value of acute oral toxicity: exceeds 5,000 mg/kg
